Results: BindingDB's records for doi:10.1021/acs.jmedchem.1c00779 (Hong Kong Polytechnic University, 2021)

Columns and labels:
[1] = Inhibition of BCRP (unknown origin) transfected in HEK293/R2 cells assessed as reversal of topotecan resistance after 5 days by MTS/PMS assay
[2] = Inhibition of BCRP (unknown origin) expressed in MCF7/MX100 cells assessed as reversal of topotecan resistance after 5 days by MTS/PMS assay
[3] = Inhibition of P-gp (unknown origin) expressed in human LCC6MDR cells assessed as reversal of paclitaxel resistance after 5 days by MTS/PMS assay
[4] = Inhibition of MRP1 (unknown origin) expressed in human 2008/MRP1 cells assessed as reversal of doxorubicin resistance after 5 days by MTS/PMS assay
[5] = Inhibition of P-gp (unknown origin) expressed in human LCC6MDR cells assessed as reversal of mitoxantrone resistance after 5 days by MTS/PMS assay
[6] = Inhibition of BCRP (unknown origin) expressed in human HEK293/R2 cells assessed as reversal of mitoxantrone resistance after 5 days by MTS/PMS assay
[7] = Inhibition of MRP1 (unknown origin) expressed in human 2008/MRP1 cells assessed as reversal of mitoxantrone resistance after 5 days by MTS/PMS assay

| SMILES | EC50 [1] [µM] | further results |
| --- | --- | --- |
| C#CCN(CC#C)CC#C | > 1 |  |
| [N-]=[N+]=NCCOCCOc1cccc(-c2oc3ccccc3c(=O)c2OCc2ccccc2)c1 | 0.169 |  |
| [N-]=[N+]=NCCOCCOCCOc1ccc2c(=O)cc(-c3ccccc3)oc2c1 | 0.177 |  |
| C#CCCN1C(=O)c2ccccc2C1=O | > 1 |  |
| COC(=O)c1cccc(COc2c(-c3ccc(OCCOCCOCCn4cc(CCCCOc5ccc(C=O)cc5)nn4)cc3)oc3ccccc3c2=O)c1 | 0.019 | EC50 [2]: 0.038 µM; EC50 [3]: > 1 µM; EC50 [4]: 0.865 µM |
| C#CCCCOc1ccc2c(=O)cc(-c3ccccc3)oc2c1 | > 1 |  |
| COC(=O)c1cccc(COc2c(-c3ccc(OCCOCCOCCN=[N+]=[N-])cc3)oc3ccccc3c2=O)c1 |  | EC50 [2]: 0.017 µM; EC50 [3]: 0.298 µM; EC50 [4]: > 1 µM |
| C#CCCCOc1ccc(-c2cc(=O)c3cc(F)ccc3o2)cc1 | 0.417 |  |
| COC(=O)c1cccc(COc2c(-c3ccc(OCCOCCn4cc(-c5cccc(-c6cn(CCOCCOc7ccc(-c8oc9ccccc9c(=O)c8OCc8cccc(C(=O)OC)c8)cc7)nn6)c5)nn4)cc3)oc3ccccc3c2=O)c1 | 0.0025 |  |
| COC(=O)c1cccc(COc2c(-c3ccc(OCCOCCn4cc(CNc5ccccc5)nn4)cc3)oc3ccccc3c2=O)c1 | 0.026 | EC50 [2]: 0.044 µM; EC50 [3]: > 1 µM; EC50 [4]: > 1 µM |
| COC(=O)c1cccc(COc2c(-c3ccc(OCCCCc4cn(Cc5ccccc5)nn4)cc3)oc3ccccc3c2=O)c1 | 0.007 | EC50 [2]: 0.006 µM; EC50 [3]: 0.67 µM; EC50 [5]: 0.673 µM; EC50 [4]: > 1 µM; EC50 [6]: 0.013 µM; EC50 [7]: 0.886 µM |
| C#CCCCOc1ccc(-c2cc(=O)c3ccccc3o2)cc1 | > 1 |  |
| COC(=O)c1cccc(COc2c(-c3ccc(OCCOCCn4cc(CN(Cc5ccccc5)Cc5ccccc5)nn4)cc3)oc3ccccc3c2=O)c1 | 0.032 | EC50 [2]: 0.03 µM; EC50 [3]: > 1 µM; EC50 [4]: > 1 µM |
| COC(=O)c1cccc(COc2c(-c3ccc(OCCOCCOCCn4cc(CCN5C(=O)c6ccccc6C5=O)nn4)cc3)oc3ccccc3c2=O)c1 | 0.16 | EC50 [3]: > 1 µM; EC50 [4]: > 1 µM |
| COC(=O)c1cccc(COc2c(-c3ccc(OCCOCCn4cc(CCN5C(=O)c6ccccc6C5=O)nn4)cc3)oc3ccccc3c2=O)c1 | 0.046 | EC50 [2]: 0.097 µM; EC50 [3]: > 1 µM; EC50 [4]: > 1 µM |
| C#CCCCOc1ccc(-c2nc3ccccc3c(=O)[nH]2)cc1 | > 1 |  |
| [N-]=[N+]=NCCOCCOc1ccc(-c2cc(=O)c3cc(F)ccc3o2)cc1 | 0.84 |  |
| [N-]=[N+]=NCCOCCOCCOc1ccc(-c2oc3ccccc3c(=O)c2OCc2ccccc2)cc1 | 0.052 |  |
| C#CCCCCOc1ccc(-c2cc(=O)c3cc(F)ccc3o2)cc1 | 0.24 |  |
| [N-]=[N+]=NCCOCCOc1ccc(-c2oc3ccccc3c(=O)c2OCc2ccccc2)cc1 | 0.045 |  |
| COC(=O)c1cccc(COc2c(-c3ccc(OCCOCCOCCn4cc(CN(CCO)Cc5ccccc5)nn4)cc3)oc3ccccc3c2=O)c1 | 0.0014 | EC50 [2]: 0.0016 µM; EC50 [3]: 0.309 µM; EC50 [5]: 0.817 µM; EC50 [4]: > 1 µM; EC50 [6]: 0.165 µM; EC50 [7]: 0.592 µM |
| C#CCCCCOc1ccc(/C=C/C(=O)c2cc(CC)ccc2O)cc1 | > 1 |  |
| C#CCN(C)Cc1ccccc1 [N-benzyl-N-methylprop-2-yn-1-amine] | > 1 |  |
| C#CCCCOc1ccc(-c2cc(=O)c3ccc(F)cc3o2)cc1 | 0.325 |  |
| C#CCNc1ccccc1 | > 1 |  |

| SMILES | EC50 [1] [µM] | further results |
| --- | --- | --- |
| C#CCCCCOc1ccc(C=O)cc1 | > 1 |  |
| COc1cccc(COc2c(-c3ccc(OCCOCCN=[N+]=[N-])cc3)oc3ccccc3c2=O)c1 | 0.076 |  |
| C#CCCCCOc1ccc(-c2oc3ccccc3c(=O)c2OCc2cccc(C(=O)OC)c2)cc1 | 0.044 | EC50 [2]: 0.034 µM; EC50 [3]: 0.821 µM; EC50 [4]: > 1 µM |
| C#CCN(Cc1ccccc1)Cc1ccccc1 | > 1 |  |
| C#CCCCOc1ccc(-c2cc(=O)c3c(OCc4ccccc4)cc(OCOC)cc3o2)cc1 | 0.201 |  |
| [N-]=[N+]=NCCOc1ccc2c(=O)cc(-c3ccccc3)oc2c1 | 0.213 |  |
| [N-]=[N+]=NCCOCCOc1ccc2c(=O)cc(-c3ccccc3)oc2c1 | 0.223 |  |
| C#CCCCOc1ccc(-c2cc(=O)c3cc(C)ccc3o2)cc1 | > 1 |  |
| C#CCCCCOc1ccc(/C=C/C(=O)c2ccccc2O)cc1 | > 1 |  |
| C#CCCCCOc1ccc(/C=C/C(=O)c2cc(C)ccc2O)cc1 | > 1 |  |
| C#CCCCCOc1ccc2c(=O)cc(-c3ccccc3)oc2c1 | > 1 |  |
| C#CCCCCOc1ccc(-c2oc3ccccc3c(=O)c2OCc2cccc(OC)c2)cc1 | 0.261 |  |
| O=c1cc(-c2ccccc2)oc2cc(OCCNCc3ccccc3)ccc12 | > 1 |  |
| Cc1ccc2oc(-c3ccc(OCCOCCOCCN=[N+]=[N-])cc3)cc(=O)c2c1 | 0.75 |  |
| C#CCCCCOc1ccc(/C=C/C(=O)c2ccc(C)cc2O)cc1 | > 1 |  |
| [N-]=[N+]=NCCOCCOc1ccc(-c2cc(=O)c3ccccc3o2)cc1 | 0.365 |  |
| COC(=O)c1cccc(COc2c(-c3ccc(OCCOCCn4cc(CN(C)Cc5ccccc5)nn4)cc3)oc3ccccc3c2=O)c1 | 0.015 | EC50 [2]: 0.0035 µM; EC50 [3]: > 1 µM; EC50 [5]: 0.644 µM; EC50 [4]: > 1 µM; EC50 [6]: 0.017 µM; EC50 [7]: 0.681 µM |
| [N-]=[N+]=NCCOCCO | > 1 |  |
| C#CCCCCOc1ccc(/C=C/C(=O)c2ccc(F)cc2O)cc1 | > 1 |  |
| COC(=O)c1cccc(COc2c(-c3ccc(OCCCCc4cn(CCOCCO)nn4)cc3)oc3ccccc3c2=O)c1 | 0.01 | EC50 [2]: 0.027 µM; EC50 [3]: 0.606 µM; EC50 [4]: > 1 µM |
| C#CCN(CCOc1ccc2c(=O)cc(-c3ccccc3)oc2c1)Cc1ccccc1 | > 1 |  |
| COC(=O)c1cccc(COc2c(-c3ccc(OCCOCCN=[N+]=[N-])cc3)oc3ccccc3c2=O)c1 |  | EC50 [2]: 0.05 µM; EC50 [3]: > 1 µM; EC50 [4]: > 1 µM |
| [N-]=[N+]=NCCOCCOCCOc1ccc(-c2cc(=O)c3ccccc3o2)cc1 | 0.363 |  |
| COC(=O)c1cccc(COc2c(-c3ccc(OCCOCCOCCn4cc(CN(C)Cc5ccccc5)nn4)cc3)oc3ccccc3c2=O)c1 | 0.016 | EC50 [2]: 0.028 µM; EC50 [3]: 0.83 µM; EC50 [4]: > 1 µM |
| C#CCOCCOc1ccc2c(=O)cc(-c3ccccc3)oc2c1 | > 1 |  |
